Measurements: patent publication US10709735B2, “Immunotherapy against neuronal and brain tumors” (IMMATICS BIOTECHNOLOGIES GMBH, priority 2007, dated 2020)

Tested on: CD8+ T cells
Test: In vitro immunogenicity: priming of CD8+ T cells with peptide-MHC/anti-CD28 coated beads (aAPC), tetramer readout
Assay type: cell-based, human
Settings: CD8+ T cells of healthy HLA-A*02+ donors, three stimulation cycles with high density beads; positive well: at least 1% specific tetramer+ among CD8+ T cells and at least 10x median of negative controls
Method: To perform in vitro stimulations by artificial antigen presenting cells (aAPC) loaded with peptide-MHC complex (pMHC) and anti-CD28 antibody, PBMCs (peripheral blood mononuclear cells) were isolated from fresh HLA-A*02+ buffy coats by using standard density gradient separation medium (PAA, Cölbe, Germany). Buffy coats were obtained from the Katharinenhospital Stuttgart. Isolated PBMCs were incubated overnight in T-cell medium (TCM) for human in vitro priming consisting of RPMI-Glutamax (Invitrogen, Karlsruhe, Germany) supplemented with 10% heat inactivated human AB serum (PAA, Cölbe, Germany), 100 U/ml Penicillin/100 μg/ml Streptomycin (Cambrex, Verviers, Belgium), 1 mM sodium pyruvate (CC Pro, Neustadt, Germany) and 20 μg/ml Gentamycin (Cambrex). CD8+ lymphocytes were isolated using the CD8+ MACS positive selection kit (Miltenyi, Bergisch Gladbach, Germany) according to the manufacturer's instructions. Obtained CD8+ T cells were incubated until use in TCM supplemented with 2.5 ng/ml IL-7 (PromoCell, Heidelberg, Germany) and 10 U/ml IL-2 (Chiron, Munich, Germany). Generation of pMHC/anti-CD28 coated beads, T-cell stimulations and readout was performed as described before (Walter et al., 2003) with minor modifications. Briefly, biotinylated recombinant HLA-A*0201 molecules lacking the transmembrane domain and biotinylated at the carboxy terminus of the heavy chain were produced following a method described by Altman et al., 1996). The purified costimulatory mouse IgG2a anti human CD28 Ab 9.3 (Jung et al., 1987) was chemically biotinylated using Sulfo-N-hydroxysuccinimidobiotin as recommended by the manufacturer (Perbio, Bonn, Germany). 5.60 μm large streptavidin coated polystyrene particles beads were used (Bangs Laboratories, Illinois/USA). pMHC was used as positive and negative controls were A*0201/MLA-001 (peptide […] from modified Melan-A/MART-1) and A*0201/DDX5-001 ([…] from DDX5), respectively.
800,000 beads/200 μl were coated in 96-well plates in the presence of 600 ng biotin anti-CD28 plus 200 ng relevant biotin-pMHC (high density beads) or 2 ng relevant plus 200 ng irrelevant (pMHC library) MHC (low density beads). Stimulations were initiated in 96-well plates by conincubating 1×10^6 CD8+ T cells with 2×10^5 washed coated beads in 200 μl TCM supplemented with 5 ng/ml IL-12 (PromoCell) for 3-4 days at 37° C. Half of the medium was then exchanged by fresh TCM supplemented with 80 U/ml IL-2 and incubating was continued for 3-4 days at 37° C. This stimulation cycle was performed for a total of three times. Finally, tetrameric analyses were performed with fluorescent MHC tetramers (produced as described by (Altman et al., 1996)) plus antibody CD8-FITC clone SK1 (BD, Heidelberg, Germany) on a FACSCalibur or a LSR II flow cytometer (BD). Peptide specific cells were calculated as percentage of total CD8+ T cells. Evaluation of tetrameric analysis was performed using the software FCS Express (De Novo Software). In vitro priming of specific tetramer+ CD8+ lymphocytes was detected by appropriate gating and by comparing to negative control stimulations.
Results shown have been obtained by stimulation of CD8+ cells with high density beads. As different human serum lots may highly affect the immunogenicity results, only assays in which one and the same serum lot was used, were evaluated together.

Q: Which Immunogenicity detected does the source give for “AIIDGVESV (listed as Homo sapiens) [PTP-003, PTPRZ1-derived tumor associated peptide, HLA A*02]” here?
A: The Immunogenicity detected was “Yes”.

Q: How did the Immunogenicity detected turn out when “KVFAGIPTV (listed as Homo sapiens) [PTP-005, PTPRZ1-derived tumor associated peptide, HLA A*02]” was run?
A: The Immunogenicity detected was “Yes”.

Q: Which Immunogenicity detected does the source give for “FLYKVILSL (listed as Homo sapiens) [PTP-002, PTPRZ1-derived tumor associated peptide, HLA A*02]” here?
A: Its Immunogenicity detected is “Yes”.

Q: “SLWAGVVVL (listed as Homo sapiens) [CHI-001, CHI3L2-derived tumor associated peptide, HLA A*02]” was tested. Which Immunogenicity detected did it give?
A: Its Immunogenicity detected is “Yes”.

Q: Which Immunogenicity detected does the source give for “ALTTLMHQL (listed as Homo sapiens) [PTP-001, PTPRZ1-derived tumor associated peptide, HLA A*0205]” here?
A: The Immunogenicity detected was “Yes”.

Q: “FLLPDTDGL (listed as Homo sapiens) [PTP-004, PTPRZ1-derived tumor associated peptide, HLA A*02]” was tested. Which Immunogenicity detected did it give?
A: Its Immunogenicity detected is “Yes”.
